Laboratory results as given in patent publication US20040034084A1, “Methods for using JNK inhibitors for treating or preventing disease-related wasting” (Celgene Corporation, priority 2002, published 2004).

How the values were obtained:
His6-JNK2 = target: T1, His6-JNK2 (Homo sapiens, UniProt P45984); experiment: JNK assay (c-Jun phosphorylation), JNK2; assay type: biochemical; conditions: read-out: IC50 for JNK2 (c-Jun phosphorylation reduced to 50% of control)
T1 construct: His6 (N)
Protocol: (§1) To 10 μL of 5-amino-anthra(9,1-cd)isothiazol-6-one in 20% DMSO/80% dilution buffer containing of 20 mM HEPES (pH 7.6), 0.1 mM EDTA, 2.5 mM magnesium chloride, 0.004% Triton ×100, 2 μg/mL leupeptin, 20 mM β-glycerolphosphate, 0.1 mM sodium vanadate, and 2 mM DTT in water was added 30 μL of 50-200 ng His6-JNK1, JNK2, or JNK3 in the same dilution buffer. The mixture was pre-incubated for 30 minutes at room temperature. Sixty microliter of 10 μg GST-c-Jun(1-79) in assay buffer consisting of 20 mM HEPES (pH 7.6), 50 mM sodium chloride, 0.1 mM EDTA, 24 mM magnesium chloride, 1 mM DTT, 25 mM PNPP, 0.05% Triton ×100, 11 μM ATP, and 0.5 μCi γ-32P ATP in water was added and the reaction was allowed to proceed for 1 hour at room temperature. The c-Jun phosphorylation was terminated by addition of 150 μL of 12.5% trichloroacetic acid. After 30 minutes, the precipitate was harvested onto a filter plate, diluted with 50 μL of the scintillation fluid and quantified by a counter. The IC50 values were calculated as the concentration of 5-amino-anthra(9,1-cd)isothiazol-6-one at which the c-Jun phosphorylation was reduced to 50% of the control value. Compounds that inhibit JNK preferably have an IC50 value ranging 0.01-10 μM in this assay. 5-Amino-anthra(9,1-cd)isothiazol-6-one has an IC50 according to this assay of 1 μM for JNK2 and 400 nM for JNK3.

His6-JNK3 = target: T2, His6-JNK3 (Homo sapiens, UniProt P53779); experiment: JNK assay (c-Jun phosphorylation), JNK3; assay type: biochemical; conditions: read-out: IC50 for JNK3 (c-Jun phosphorylation reduced to 50% of control)
T2 construct: His6 (N)
Protocol: as §1

p38-2 = p38-2 (Homo sapiens, UniProt Q15759); experiment: Selectivity for JNK: protein kinase panel, p38-2; assay type: biochemical
Protocol: (§2) 5-Amino-anthra(9,1-cd)isothiazol-6-one was also assayed for its inhibitory activity against several protein kinases, listed below, using techniques known to those skilled in art (See, e.g., Protein Phosphorylation, Sefton & Hunter, Eds., Academic Press, pp. 97-367, 1998).

MEK6 = target: T3, MEK6 (Homo sapiens, UniProt P52564); experiment: Selectivity for JNK: protein kinase panel, MEK6; assay type: biochemical
T3 sequence (P52564 1-334): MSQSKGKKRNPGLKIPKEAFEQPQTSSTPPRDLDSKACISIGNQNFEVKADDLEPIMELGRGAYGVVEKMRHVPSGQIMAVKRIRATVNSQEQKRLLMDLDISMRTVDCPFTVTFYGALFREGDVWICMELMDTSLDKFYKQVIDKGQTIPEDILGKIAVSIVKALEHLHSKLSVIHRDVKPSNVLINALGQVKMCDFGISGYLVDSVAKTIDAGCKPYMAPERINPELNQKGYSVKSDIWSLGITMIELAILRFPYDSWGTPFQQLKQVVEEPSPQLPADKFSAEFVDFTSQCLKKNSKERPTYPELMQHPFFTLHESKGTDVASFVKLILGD
Protocol: as §2

LKK1 = target: T4, LKK1 (Homo sapiens, UniProt O15111); experiment: Selectivity for JNK: protein kinase panel, LKK1; assay type: biochemical
T4 sequence (O15111 1-745): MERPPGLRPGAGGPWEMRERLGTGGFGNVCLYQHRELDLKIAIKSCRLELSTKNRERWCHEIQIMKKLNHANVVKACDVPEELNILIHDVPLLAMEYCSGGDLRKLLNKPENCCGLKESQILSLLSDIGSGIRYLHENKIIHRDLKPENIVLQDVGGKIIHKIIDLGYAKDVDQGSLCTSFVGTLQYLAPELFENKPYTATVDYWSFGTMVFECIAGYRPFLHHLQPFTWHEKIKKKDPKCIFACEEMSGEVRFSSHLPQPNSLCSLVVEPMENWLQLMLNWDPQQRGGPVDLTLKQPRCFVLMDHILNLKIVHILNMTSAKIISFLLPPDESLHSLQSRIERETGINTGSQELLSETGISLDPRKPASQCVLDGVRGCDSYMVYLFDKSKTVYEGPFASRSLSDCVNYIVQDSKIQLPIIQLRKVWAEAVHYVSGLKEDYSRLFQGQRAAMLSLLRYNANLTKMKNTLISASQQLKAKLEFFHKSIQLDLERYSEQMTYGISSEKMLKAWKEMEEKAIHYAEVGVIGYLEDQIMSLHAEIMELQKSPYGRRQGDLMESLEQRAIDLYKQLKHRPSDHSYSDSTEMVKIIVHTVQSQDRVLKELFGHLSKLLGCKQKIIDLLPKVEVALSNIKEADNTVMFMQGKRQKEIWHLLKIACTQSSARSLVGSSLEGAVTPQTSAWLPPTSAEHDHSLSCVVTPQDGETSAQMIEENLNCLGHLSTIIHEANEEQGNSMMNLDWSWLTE
Protocol: as §2

IKK2 = target: T5, IKK2 (Homo sapiens, UniProt O14920); experiment: Selectivity for JNK: protein kinase panel, IKK2; assay type: biochemical
T5 sequence (O14920 1-756): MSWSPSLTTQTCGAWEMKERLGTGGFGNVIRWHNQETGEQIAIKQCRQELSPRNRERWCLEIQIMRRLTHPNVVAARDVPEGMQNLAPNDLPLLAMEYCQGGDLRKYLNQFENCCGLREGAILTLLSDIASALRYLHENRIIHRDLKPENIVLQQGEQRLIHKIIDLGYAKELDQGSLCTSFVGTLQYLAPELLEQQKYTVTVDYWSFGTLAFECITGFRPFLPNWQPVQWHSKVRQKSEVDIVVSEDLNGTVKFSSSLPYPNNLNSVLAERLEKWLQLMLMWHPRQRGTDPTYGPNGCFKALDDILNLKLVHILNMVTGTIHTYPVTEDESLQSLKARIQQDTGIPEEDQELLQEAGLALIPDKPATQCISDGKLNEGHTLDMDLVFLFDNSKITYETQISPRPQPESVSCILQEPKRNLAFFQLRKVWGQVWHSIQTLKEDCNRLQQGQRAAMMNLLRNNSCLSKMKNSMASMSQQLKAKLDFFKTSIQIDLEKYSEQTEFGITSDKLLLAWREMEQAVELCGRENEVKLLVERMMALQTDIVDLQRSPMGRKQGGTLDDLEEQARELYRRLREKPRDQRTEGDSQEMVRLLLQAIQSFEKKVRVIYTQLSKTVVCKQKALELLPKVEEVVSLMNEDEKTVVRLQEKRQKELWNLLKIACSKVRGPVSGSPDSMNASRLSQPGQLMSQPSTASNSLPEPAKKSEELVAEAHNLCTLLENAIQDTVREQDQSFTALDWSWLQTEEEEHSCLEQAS
Protocol: as §2

[1] = tested on: IL-2 production in Jurkat T cells (clone E6-1); experiment: Jurkat T-cell IL-2 production assay; assay type: cell-based; conditions: Homo sapiens, 10 h, read-out: IC50, IL-2 production reduced to 50% of control
Protocol: Jurkat T cells (clone E6-1) were purchased from the American Type Culture Collection of Manassas, Va. and maintained in growth media consisting of RPMI 1640 medium containing 2 mM L-glutamine (commercially available from Mediatech Inc. of Hemdon, Va.), with 10% fetal bovine serum (commercially available from Hyclone Laboratories Inc. of Omaha, Nebr.) and penicillin/streptomycin. All cells were cultured at 37° C. in 95% air and 5% CO2. Cells were plated at a density of 0.2×10^6 cells per well in 200 μL of media. Compound stock (20 mM) was diluted in growth media and added to each well as a 10× concentrated solution in a volume of 25 μL, mixed, and allowed to pre-incubate with cells for 30 minutes. The compound vehicle (dimethylsulfoxide) was maintained at a final concentration of 0.5% in all samples. After 30 minutes the cells were activated with PMA (phorbol myristate acetate, final concentration 50 ng/mL) and PHA (phytohemagglutinin, final concentration 2 μg/mL). PMA and PHA were added as a 10× concentrated solution made up in growth media and added in a volume of 25 μL per well. Cell plates were cultured for 10 hours. Cells were pelleted by centrifugation and the media removed and stored at −20° C. Media aliquots are analyzed by sandwich ELISA for the presence of IL-2 as per the manufacturers instructions (Endogen Inc. of Woburn, Mass.). […]

[2] = tested on: rat ventral mesencephalan dopaminergic neurons; experiment: [3H]Dopamine cell culture assay (6-OHDA neurotoxicity); assay type: cell-based; conditions: 6-OHDA 30 μM, uptake 22 hours after exposure
Protocol: Cultures of dopaminergic neurons were prepared according to a modification of the procedure described by Raymon and Leslie (J. Neurochem. 62:1015-1024, 1994). Time-mated pregnant rats were sacrificed on embyronic day 14-15 (crown rump length 11-12 mm) and the embryos removed by cesarean section. The ventral mesencephalon, containing the dopaminergic neurons, was dissected from each embryo. Tissue pieces from approximately 48 embryos were pooled and dissociated both enzymatically and mechanically. An aliquot from the resulting cell suspension was counted and the cells were plated in high glucose DMEM/F12 culture medium with 10% fetal bovine serum at a density of 1×10^5 cells/well of a Biocoat poly-D-lysine-coated 96-well plate. The day following plating was considered 1 day in vitro (DIV). Cells were maintained in a stable environment at 37° C., 95% humidity, and 5% CO2. A partial medium change was performed at 3 DIV. […]
[^3H]Dopamine uptake is used as a measure of the health and integrity of dopaminergic neurons in culture (Prochiantz et al., PNAS 76: 5387-5391, 1979). […] Briefly, cells treated with 6-OHDA in the presence and absence of 5-amino-anthra(9,1-cd)isothiazol-6-one were assessed in the uptake assay 22 hrs after exposure to 6-OHDA. […] Radioactivity was removed and the cultures were washed 3× with ice cold PBS. […]

[3] = Brain-blood plasma distribution in vivo; parameters: species or system Sprague-Dawley rats; conditions: rat
Protocol: 5-Amino-anthra(9,1-cd)isothiazol-6-one was administered intravenously (10 mg/kg) into the veins of Sprague-Dawley rats. After 2 hr, blood samples were obtained from the animals and their vascular systems were perfused with approximately 100 mL of saline to rid their brains of blood. The brains were removed from the animals, weighed, and homogenized in a 50 mL conical tube containing 10 equivalents (w/v) of methanol/saline (1:1) using a Tissue Tearer (Fischer Scientific). The homogenized material was extracted by adding 600 μL of cold methanol to 250 μL of brain homogenate vortexed for 30 sec and subjected to centrifugation for 5 min. After centrifugation, 600 μL of the resulting supernatant was transferred to a clean tube and evaporated at room temperature under reduced pressure to provide a pellet. The resulting pellet was reconstituted in 250 μL of 30% aqueous methanol to provide a brain homogenate analysis sample. A plasma analysis sample was obtained using the brain homogenate analysis sample procedure described above by substituting plasma for brain homogenate. Standard plasma samples and standard brain homogenate samples containing known amounts of 5-amino-anthra(9,1-cd)isothiazol-6-one were also prepared by adding 5 μL of serial dilutions (50:1) of a solution of 5-amino-anthra(9,1-cd)isothiazol-6-one freshly prepared in cold ethanol to 250 μL of control rat plasma (Bioreclamation of Hicksville, N.Y.) or control brain homogenate. The standard plasma samples and standard brain homogenate samples were then subjected to the same extraction by protein precipitation, centrifugation, evaporation, and reconstitution procedure used for the brain homogenate to provide brain homogenate standard analysis samples and plasma standard analysis samples. The brain homogenate analysis samples, plasma analysis samples, and standard analysis samples were analyzed and compared using HPLC by injecting 100 μL of a sample onto a 5 μm C-18 Luna column (4.6 mm×150 mm, commercially available from Phenomenex of Torrance, Calif.) and eluting at 1 mL/min with a linear gradient of 30% aqueous acetonitrile containing 0.1% trifluoroacetic acid to 90% aqueous acetonitrile containing 0.1% trifluoroacetic acid over 8 minutes and holding at 90% aqueous acetonitrile containing 0.1% trifluoroacetic acid for 3 min. with absorbance detection at 450 nm. […] The concentration of 5-amino-anthra(9,1-cd) isothiazol-6-one in the brain and plasma was determined by comparing HPLC chromatograms obtained from the brain homogenate analysis samples and plasma analysis samples to standard curves constructed from analysis of the brain homogenate standard analysis samples and the plasma standard analysis samples, respectively. […]

[4] = Solubility in aqueous media (remark); assay type: physicochemical

Chain of p38-2 (Q15759 whole entry, species assumed): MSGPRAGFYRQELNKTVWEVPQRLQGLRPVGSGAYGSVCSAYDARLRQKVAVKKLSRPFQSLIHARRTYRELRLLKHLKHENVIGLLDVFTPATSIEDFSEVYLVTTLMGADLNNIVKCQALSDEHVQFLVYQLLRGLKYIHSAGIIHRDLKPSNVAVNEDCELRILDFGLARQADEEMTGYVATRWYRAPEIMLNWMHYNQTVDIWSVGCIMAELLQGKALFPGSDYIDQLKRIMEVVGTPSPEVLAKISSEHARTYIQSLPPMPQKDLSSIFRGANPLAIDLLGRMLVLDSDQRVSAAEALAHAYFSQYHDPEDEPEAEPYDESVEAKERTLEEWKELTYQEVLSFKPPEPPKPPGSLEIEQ
T2 sequence (P53779 whole entry): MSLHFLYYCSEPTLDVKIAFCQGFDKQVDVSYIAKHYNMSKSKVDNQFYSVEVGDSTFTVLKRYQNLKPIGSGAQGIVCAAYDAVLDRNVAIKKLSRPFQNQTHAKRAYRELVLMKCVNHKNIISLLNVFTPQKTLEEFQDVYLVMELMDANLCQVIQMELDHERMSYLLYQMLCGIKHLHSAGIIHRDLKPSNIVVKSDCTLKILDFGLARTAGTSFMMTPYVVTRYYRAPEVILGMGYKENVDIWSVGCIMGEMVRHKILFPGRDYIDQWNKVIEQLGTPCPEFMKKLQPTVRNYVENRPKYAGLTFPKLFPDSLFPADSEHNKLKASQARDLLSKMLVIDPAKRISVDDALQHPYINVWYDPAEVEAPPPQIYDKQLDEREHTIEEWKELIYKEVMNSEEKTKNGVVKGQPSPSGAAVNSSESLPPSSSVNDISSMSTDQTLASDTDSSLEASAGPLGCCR
T1 sequence (P45984 whole entry): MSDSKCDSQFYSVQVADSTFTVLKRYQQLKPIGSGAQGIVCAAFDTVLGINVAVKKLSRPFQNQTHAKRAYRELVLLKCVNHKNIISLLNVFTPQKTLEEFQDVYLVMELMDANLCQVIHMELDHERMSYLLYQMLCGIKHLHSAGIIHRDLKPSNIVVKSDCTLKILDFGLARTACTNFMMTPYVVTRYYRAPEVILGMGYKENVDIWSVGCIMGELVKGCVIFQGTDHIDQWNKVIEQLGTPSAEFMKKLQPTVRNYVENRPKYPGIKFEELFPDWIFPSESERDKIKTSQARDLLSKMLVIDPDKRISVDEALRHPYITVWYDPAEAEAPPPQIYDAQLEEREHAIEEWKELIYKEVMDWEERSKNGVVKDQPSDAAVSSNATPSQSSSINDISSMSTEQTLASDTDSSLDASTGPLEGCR

## Nc1ccc2snc3c2c1C(=O)c1ccccc1-3 [5-amino-anthra(9,1-cd)isothiazol-6-one]
His6-JNK2
  IC50: 1 µM
His6-JNK3
  IC50: 0.4 µM
p38-2
  IC50: > 30 µM
MEK6
  IC50: > 30 µM
LKK1
  IC50: > 30 µM
IKK2
  IC50: > 30 µM
[1]
  IC50: 30 µM
[2]
  Protection of dopaminergic neurons from 6-OHDA ([3H]dopamine uptake): protects rat ventral mesencephalan neurons from the toxic effects of 6-OHDA
[3]; Sprague-Dawley, iv, 10 mg/kg intravenously, 2 hr post-dose, assuming 1 g brain tissue equivalent to 1 mL plasma, read-out: Brain-plasma concentration ratio
  Kp at 2 h: ~9
[3]; Sprague-Dawley, plasma, iv, 10 mg/kg intravenously, 2 hr post-dose
  concentration at 2 h: ~7 µM
[3]; 10 mg/kg intravenously, 2 hr post-dose
  Brain-drug concentration: approximately 65 nmole/g
[3]; following intravenous administration
  Blood-brain barrier crossing: crosses the blood-brain barrier to a significant extent
[4]
  Solubility in aqueous media: limited solubility
